Assays:
[1] = system: P. aeruginosa MB9798 (efflux+, IMP-1 plasmid); conditions: for MB9798 MITC95 P. aeruginosa uM Efflux WT: efflux + (MB9798) strain, imipenem at 2 μg/mL, in the presence of a class A, C, D serine β-lactamase inhibitor closely related to relebactam; for Efflux ratio: fold difference between efflux+ (MB9798) and efflux− (MB9799) strains
How it was run: (§1)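 PAO1-derived isogenic pair (oprD+, inducible AmpC), efflux+ MB5919 or efflux− MB5890 parent, carrying an electroporated IMP-1 plasmid from a clinical isolate. Microbroth MIC with fixed imipenem and/or ceftazidime (usually CLSI breakpoint) plus fixed class A/C inhibitor; MBL inhibitor serially titrated, concentration restoring susceptibility recorded.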

VIM-1 = VIM-1 (Pseudomonas aeruginosa (strain ATCC 15692 / DSM 22644 / CIP 104116 / JCM 14847 / LMG 12228 / 1C / PRS 101 / PAO1), UniProt A0A0F7KYQ8); assay: biochemical; conditions: CCF2-FA fluorescence assay, 2 hours at 25° C.; read-out: VIM1 IC50
How it was run: (§2)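 Metallo-β-lactamase activity read by fluorescence against CCF2-FA (1.25 μM final) in 100 mM KH2PO4 pH 7 with 0.005% Tween-20 and 10 μM ZnSO4; enzyme final at 1 pM NDM-1, 2 pM IMP-1 or 30 pM VIM-1. Inhibitor at 20 to 0.00063 μM, 2 h at 25° C; IC50 by 4-parameter fit.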

IMP-1 = IMP-1 (Serratia marcescens, UniProt P52699); assay: biochemical; conditions: CCF2-FA fluorescence assay, 2 hours at 25° C.; read-out: IMP1 IC50
How it was run: as §2

[2] = system: Serratia marcescens expressing IMP-1 (CL5741); assay type: cell-based; conditions: with imipenem 1 μg/ml; 95% inhibition of bacterial growth
How it was run: (§3)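 MITC95 denotes the minimal test-compound level that, combined with 1 μg/ml imipenem, blocks 95% of bacterial growth, measured by absorbance. Overnight-grown clinical isolates were diluted 1:100 in CAMHB and incubated with both agents at 35° C for 22–24 h.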

[3] = system: Klebsiella pneumoniae expressing VIM-1 (IHMA599644); assay type: cell-based; conditions: with imipenem 1 μg/ml; 95% inhibition of bacterial growth
How it was run: as §3

[4] = system: Escherichia coli expressing NDM-1 (CLB30016); assay type: cell-based; conditions: with imipenem 1 μg/ml; 95% inhibition of bacterial growth
How it was run: as §3

NDM-1 = NDM-1 (Klebsiella pneumoniae, UniProt C7C422); assay: biochemical; assay type: biochemical; conditions: CCF2-FA fluorescence assay, 2 hours at 25° C.
How it was run: as §2

VIM-2 = VIM-2 (Escherichia coli, UniProt Q5U7L7); assay: biochemical; conditions: CCF2-FA fluorescence assay; read-out: VIM2 IC50
[5] = system: P. aeruginosa MB9799 (efflux-, IMP-1 plasmid); assay type: cell-based, Pseudomonas aeruginosa; conditions: efflux − (MB9799) strain; imipenem at 2 μg/mL; in the presence of a class A, C, D serine β-lactamase inhibitor closely related to relebactam
How it was run: as §1

Sequence of IMP-1 (P52699 whole entry, looked up, species assumed): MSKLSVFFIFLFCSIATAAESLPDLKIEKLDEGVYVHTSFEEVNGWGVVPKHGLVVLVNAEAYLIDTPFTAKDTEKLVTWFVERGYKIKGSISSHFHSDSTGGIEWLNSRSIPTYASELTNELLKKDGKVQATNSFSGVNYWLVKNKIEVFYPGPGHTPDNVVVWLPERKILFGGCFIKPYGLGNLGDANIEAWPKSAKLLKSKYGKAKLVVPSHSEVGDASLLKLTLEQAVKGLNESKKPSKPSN
Sequence of NDM-1 (C7C422 whole entry, looked up, species assumed): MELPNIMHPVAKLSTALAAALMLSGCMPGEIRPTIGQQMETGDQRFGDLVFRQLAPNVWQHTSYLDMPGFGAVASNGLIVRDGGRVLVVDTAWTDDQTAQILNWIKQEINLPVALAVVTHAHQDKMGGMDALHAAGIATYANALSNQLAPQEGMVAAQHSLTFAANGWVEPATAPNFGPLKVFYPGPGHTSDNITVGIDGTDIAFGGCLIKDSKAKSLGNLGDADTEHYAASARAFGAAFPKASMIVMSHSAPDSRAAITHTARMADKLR

Structure (SMILES)	MB9798 MITC95 P. aeruginosa uM Efflux WT [1]	Efflux ratio [1]	IC50 (VIM-1)	IC50 (IMP-1)	CL5741 S. marcescens MITC95 IMP [2]	IHMA599644 K. pneumoniae MITC95 VIM [3]	CLB30016 E. coli MITC95 NDM [4]	IC50 (NDM-1)	IC50 (VIM-2)	MB9799 MITC95 P. aeruginosa uM Efflux Mutant [5]
NCC1C2CCC1CN(c1ccc(S(=O)(=O)NC[C@H](O)CN)c(S(N)(=O)=O)c1-c1nn[nH]n1)C2 (stereo partly drawn) [Example 172, N1-((R)-3-amino-2-hydroxypropyl)-4-((1R,5S,8R)-8-(aminomethyl)-3-azabicyclo[3.2.1]octan-3-yl)-3-(2H-tetrazol-5-yl)benzene-1,2-disulfonamide]	1.17 µM	1.00	0.66 nM	3.49 nM	2.34 µM	2.34 µM	1.17 µM	2.15 nM	3.78 nM	1.17 µM
NC[C@@H]1CCCN(c2ccc(S(=O)(=O)N[C@@H]3CCNC3)c(S(N)(=O)=O)c2-c2nnn[nH]2)C1 [Example 78, 4-[(3S)-3-(aminomethyl)piperidin-1-yl]-N1-[(3R)-pyrrolidin-3-yl]-3-(1H-tetrazol-5-yl)benzene-1,2-disulfonamide]	6.25 µM	8.00	0.66 nM	35.4 nM	1.56 µM	1.56 µM	0.39 µM	5.4 nM	3.01 nM	0.78 µM
NC[C@@H](O)CNS(=O)(=O)c1ccc(N2CCC(C(N)CO)CC2)c(-c2nn[nH]n2)c1S(N)(=O)=O (mixture of isomers) [Example 182, 4-(4-(1-Amino-2-hydroxyethyl)piperidin-1-yl)-N1-((R)-3-amino-2-hydroxypropyl)-3-(2H-tetrazol-5-yl)benzene-1,2-disulfonamide]	0.78 µM	1.00	0.27 nM	4 nM	0.78 µM	1.56 µM	0.39 µM	3.77 nM	3.82 nM	0.78 µM
NC(=O)C1CCN(c2ccc(S(=O)(=O)N[C@@H]3CCNC3)c(S(N)(=O)=O)c2-c2nn[nH]n2)CCN1 (stereo partly drawn) [Example 165, 1-(4-(N-((R)-pyrrolidin-3-yl)sulfamoyl)-3-sulfamoyl-2-(2H-tetrazol-5-yl)phenyl)-1,4-diazepane-5-carboxamide]	1.56 µM	2.00	0.38 nM	2.43 nM	0.20 µM	1.56 µM	0.20 µM	1.21 nM	2.35 nM	0.78 µM
NCCNS(=O)(=O)C1CCN(c2ccc(S(=O)(=O)NC[C@H](O)CN)c(S(N)(=O)=O)c2-c2nn[nH]n2)CC1 [Example 190, (R)—N1-(3-amino-2-hydroxypropyl)-4-(4-(N-(2-aminoethyl)sulfamoyl)piperidin-1-yl)-3-(2H-tetrazol-5-yl)benzene-1,2-disulfonamide]	0.78 µM	1.00	0.09 nM	0.61 nM	0.78 µM	1.56 µM	3.13 µM	0.67 nM	0.85 nM	0.78 µM
NC[C@@H](O)CNS(=O)(=O)c1ccc(N2CC[C@@H](N)[C@H](F)C2)c(-c2nn[nH]n2)c1S(N)(=O)=O [Example 2]	0.78 µM	1.00	0.17 nM	3.37 nM	0.78 µM	0.78 µM	0.20 µM	6.51 nM	4.04 nM	0.78 µM
NCC1(O)CCN(c2ccc(S(=O)(=O)N[C@@H]3CCNC3)c(S(N)(=O)=O)c2-c2nnn[nH]2)CC1 [Example 85, 4-[4-(aminomethyl)-4-hydroxypiperidin-1-yl]-N1-[(3R)-pyrrolidin-3-yl]-3-(1H-tetrazol-5-yl)benzene-1,2-disulfonamide]	1.56 µM	2.00	2.13 nM	9.94 nM	1.56 µM	1.56 µM	0.78 µM	3.15 nM	23.7 nM	0.78 µM
NS(=O)(=O)c1c(S(=O)(=O)N[C@@H]2CCNC2)ccc(N2CC[C@H](CO)C2)c1-c1nnn[nH]1 [Example 96, 4-[(3S)-3-(hydroxymethyl)pyrrolidin-1-yl]-N1-[(3R)-pyrrolidin-3-yl]-3-(1H-tetrazol-5-yl)benzene-1,2-disulfonamide]	3.13 µM	2.00	0.53 nM	0.98 nM	1.56 µM	6.25 µM	3.13 µM	1.21 nM	1.02 nM	1.56 µM
NS(=O)(=O)c1c(S(=O)(=O)N[C@@H]2CCNC2)ccc(N2CCC(CF)CC2)c1-c1nnn[nH]1 [Example 89, 4-[4-(fluoromethyl)piperidin-1-yl]-N1-[(3R)-pyrrolidin-3-yl]-3-(1H-tetrazol-5-yl)benzene-1,2-disulfonamide]	3.13 µM	2.00	0.21 nM	0.61 nM	3.13 µM	12.50 µM	1.56 µM	0.21 nM	0.66 nM	1.56 µM
NC[C@@H](O)CNS(=O)(=O)c1ccc(N2CCN(CCO)CC2)c(-c2nnn[nH]2)c1S(N)(=O)=O [Example 47, (R)-N1-(3-amino-2-hydroxypropyl)-4-(4-(2-hydroxyethyl)piper-azin-1-yl)-3-(1H-tetrazol-5-yl)benzene-1,2-disulfonamide]	1.56 µM	2.00	5.02 nM	4.57 nM	0.10 µM	0.78 µM	0.10 µM	3.94 nM	7.34 nM	0.78 µM
NS(=O)(=O)c1c(S(=O)(=O)N[C@@H]2CCNC2)ccc(N2CC[C@@H](CO)C2)c1-c1nnn[nH]1 [Example 70, 4-[(3R)-3-(hydroxymethyl)pyrrolidin-1-yl]-N1-[(3R)-pyrrolidin-3-yl]-3-(1H-tetrazol-5-yl)benzene-1,2-disulfonamide]	2.34 µM	1.20	0.57 nM	0.51 nM	3.91 µM	7.81 µM	3.91 µM	0.45 nM	1.25 nM	1.95 µM

Source: patent publication US11207312B2, “Metallo-beta-lactamase inhibitors and methods of use thereof” (priority 2017, dated 2021)
